The values below come from patent US20250019657A1, “Generation of Adipocytes from Bovine Embryonic Stem Cell Lines” (Wisconsin Alumni Research Foundation, priority 2023, published 2025).

For test [1], the system named is bESCs. Kind of test: bESC growth in Medium 1 with alternative Wnt inhibitors (Medium 1a/1b) on vitronectin, feeder-free. The format is cell-based, bovine. As for the experimental part: 1) Wnt-inhibitors (Medium la and Medium 1b): In prior studies, mTeSR Plus medium supplemented with 20 ng/ml human FGF2 and 2.5 μM IWR1 was used for bESC cultures (Saito et al. 1992; Stice et al. 1996). […] Nat Chem Biol 11, 973-980 (2015); and Mallinger et al., Discovery of potent, orally bioavailable, small-molecule inhibitors of WNT signaling from a cell-based pathway screen.
bESC growth in Medium 1 was tested with concentrations of 1 nM, 5 nM, or 10 nM iCRT3 (Medium 1a).
In another set of experiments, bESC growth in Medium 1 was tested with concentrations of 1 nM, 5 nM, 75 nM, or 150 nM CCT251545 (Medium 1b).
In Method 1, bESC colonies growing on Vitronectin were passaged by using TrypLe. Following medium aspiration 0.5-0.8 mL of TrypLE was added to each well of 6 well plate. Cells incubated for 3.5 min at 37.2° C. Then TrypLE has been carefully removed by aspiration and 1-1.2 mL of cold (+1-+4° C.) TeSRr medium was added, cells were suspended by pipette filtered via strainer (70 mkM), counted and an aliquot of 70,000 to 100,000 cell/well for 6 wells plate was taken and cells centrifuged at 100 g for 5 minutes. The cell pellet was resuspended in 9 mL growth medium and seeded on coated by vitronectin 6-well plate.

The test system of test [2] is bESCs. The test can be described thus: bESC growth in mTeSR medium with DAPT and IWR-1 (Medium 3 / Method 3). The format is cell-based, bovine. Here is the method: To test whether DAPT can be used for bESC cultures, the growth of bESC was tested in mTeSR medium with different concentrations of DAPT and IWR-1. […] Addition of IWR-1 to DAPT had no effect on bESCs. (FIG. 3, Table 6; bESC Medium 3/Method 3). mTeSR with 10 μM DAPT alone supported bESC cultures for more than 7 passages.
In Method 3, bESC were cultured in bESC medium 3 composed of TeSR Plus (WiCell) supplemented with […] of gamma γ-secretase inhibitor DAPT on collagen or a vitronectin-coated 6-well plate and were passage using PBS-EDTA. Following aspiration of bESC growth media, 0.7-1.2 mL of PBS-EDTA solution was added to each well of 6 well plate. After incubation 5 to 6 min at +37° C., PBS-EDTA was carefully removed by aspiration and 1-1.2 mL of cold (+1-+4° C.) TeSR medium was added, cells were suspended by pipette filtered via strainer (70 mkM), counted and an aliquot of 100,000 to 150,000 cell/well for 6 wells plate was taken and cells were centrifuged at 100 g for 5 minutes. Cell pellets were resuspended in 9 mL growth medium and plated on a collagen or vitronectin coated 6-well plate. Cells grew for 5-7 days until they formed large colonies. PBS-EDTA solution was prepared as described above.

For test [3], the system named is bESCs. The test can be described thus: Matrix coating supporting expansion of bESCs in feeder-free conditions. The format is cell-based, bovine. To be noted: for bESC growth on pre-coated plate (FIG. 2): Method 1 bESCs, medium with 2.5 μM IWR-1 (bESC medium 1). The text has this:
After co-culture with MEFs, bESCs were collected using TrypLE treatment and cultured in 6-well plastic plates in feeder-free conditions for expansion. […] However, collagen pre-coated plates can be used to support bESC growth in bESC medium 2.
To establish feeder-free conditions for bESCs, bESCs were collected from coculture with MEFs using TrypLE treatment and transferred into 6-well plastic plates precoated Vitronectin XF, collagen, or Matrigel®.
Vitronectin Coating Preparation: A frozen vial of Vitronectin XF (2 mL) from Stem Cell Technology (Cat #07180) was thawed and mixed with 50 mL of DPBS and distributed into 6 of 6-well plates (˜1.4 mL/well) sealed with Parafilm and kept wrapped in foil at +4° C. for not more than 2 weeks. Before use, the plate was kept at +37° C. for at least 1 hr. Immediately after aspiration excess of liquid, bESCs in culture medium were added.
Collagen Coating Preparation: Collagen (Sigma, Cat #5162-1G) was dissolved in distilled water and sterilized by filtration using 0.22 um filter. Collagen solution aliquoted into 70 μL PCR tubes and kept at −80° C. before use. For coating wells, the content of tube was transferred into 50 mL DPBS, carefully mixed, and distributed into 6 of 6 wells plate, approximately 1.3-1.4 mL/well. Plates sealed with Parafilm and kept at RT not more than 2 wecks.
Matrigel® Coating Preparation: Frozen stock (˜0.5 mL) of Matrigel® needs was thaw on ice and diluted in 50 mL of cold DPBS (+4° C.). Approximately 1.2-1.3 mL (9 μg/cm^2) of diluted Matrigel® solution was added to each well. After 1 hour incubation at +37° C. excess Matrigel® was removed and wells washed with warm DPBS.

Test [4] concerns bovine embryo derived blastocysts. The test can be described thus: Generation of bESC lines from blastocysts on different coatings. The format is cell-based. The following applies: Method 1. Here is the method:
bESCs were generated from IVM/IVF bovine embryo derived blastocysts on 6th to 7th days post-fertilization. Briefly, bovine embryos were obtained from an outside source and cultured in TeSR Plus medium supplemented with 15% fetal bovine serum from 24 to 72 hours to get an expanded blastocyst stage. After that zona pellucida was removed by treating embryos with pronase. Embryos with stripped zona pellucida were plated on irradiated MEFs (obtained from WICell) in a 4-well IVF plate and cultured according to Method 1 or Method 2. Following expansion of inner cell mass after culture for 2-3 weeks on MEFs, cells were disaggregated by TrypLE, and bESC were generated from individual blastocysts by two Methods (Method 1 or Method 2) to maximize efficiency.
To determine if feeder-free conditions were suitable for maximizing generation of bESCs from inner cell mass, individual blastocysts were placed into culture plates according to Method 1 or Method 2 with coating conditions modified as shown in Table 1. Coating conditions using MEF feeder cells or vitronectin (feeder-free) were tested. In the first set, 11 bovine embryos were used to establish 4 bESC lines, 3 of which were differentiated and tossed after passage 5-7. Only one cell line remained undifferentiated and maintained expression of bESC pluripotency factors Oct4 and Sox2. […]

[5] abbreviates: 1 nM inhibitor in Medium 1, vitronectin.
[6] abbreviates: feeder-free, bESC medium 1 or 2.

As to `Cn1cc(-c2ccc(-c3cncc(Cl)c3N3CCC4(CCNC4=O)CC3)cc2)cn1` [CCT251545], the “bESC growth on vitronectin” value in test [1] (1 nM inhibitor in Medium 1), in test [1] (5 nM inhibitor in Medium 1) and in test [1] (75 nM inhibitor in Medium 1) was “did not support bESC growth” each time. The “passages after which cells died” value in test [1] (setting [5]) is listed as 2-3 passages. For the same molecule, the “bESC growth with typical morphology and expression of Sox2 and Oct4” value in test [1] (150 nM inhibitor in Medium 1) is “supported bESC growth”. For the same molecule, the “passages of supported bESC growth” value in test [1] (150 nM inhibitor in Medium 1) is “more than 7 passages”.

As to `C[C@H](NC(=O)Cc1cc(F)cc(F)c1)C(=O)NC(C(=O)OC(C)(C)C)c1ccccc1` (some centres unmarked) [DAPT], the “growth of bESCs” value in test [2] (DAPT alone at 5-10 μM in mTeSR medium) is recorded as “sufficient to support growth of bESCs”. Also, in test [2] (mTeSR with 10 μM DAPT alone), the “passages of supported bESC cultures” value is on record as “more than 7 passages”.

In the case of `O=C(Nc1cccc2cccnc12)c1ccc(N2C(=O)[C@@H]3[C@H](C2=O)[C@@H]2C=C[C@H]3C2)cc1` [IWR-1], the “effect on bESCs of addition to DAPT” value in test [2] (IWR-1 added to DAPT in mTeSR medium) is listed as “no effect”.

As for `CCc1ccc(-c2nc(CSCC(=O)NCCc3ccccc3)c(C)o2)cc1` [iCRT3], the “bESC growth on vitronectin” value in test [1] (1 nM inhibitor in Medium 1) and in test [1] (5 nM inhibitor in Medium 1) was “did not support bESC growth” in each case. In addition, the “passages after which cells died” value is 1-2 passages in test [1] (setting [5]) and 2-4 passages in test [1] (5 nM inhibitor in Medium 1, vitronectin). Besides, the “bESC growth with typical morphology and expression of Sox2 and Oct4” value in test [1] (10 nM inhibitor in Medium 1) is listed as “supported bESC growth”. In test [1] (10 nM inhibitor in Medium 1), the “passages of supported bESC growth” value was “more than 10 passages”.

As for collagen, in test [3], the “bESC growth on pre-coated plate (FIG. 2)” value is given as “supports bESC cultures”. Further, the “bESC adherence to matrix” value in test [3] (bESC medium 1) is “very lightly and weak”. The “bESC colony formation and growth on matrix” value in test [3] (bESC medium 2) was “able to form colonies and grow”. For the same molecule, the “bESC morphology on matrix” value in test [3] (setting [6]) is listed as “maintained a typical bESC morphology”.

Turning to gelatin, in test [3], the “bESC growth on pre-coated plate (FIG. 2)” value is listed as “do not support the growth of bESCs”. Besides, in test [3] (setting [6]), the “bESC attachment to pre-coated plates” value is reported as “attached” and the “bESC growth on pre-coated plates” value is recorded as “did not grow”.

B1: vitronectin + Cover Glass on the top: vitronectin coating with cover glass on top (protein, UniProt P04004 20-478, looked up)
Vitronectin: DQESCKGRCTEGFNVDKKCQCDELCSYYQSCCTDYTAECKPQVTRGDVFTMPEDEYTVYDDGEEKNNATVHEQVGGPSLTSDLQAQSKGNPEQTPVLKPEEEAPAPEVGASKPEGIDSRPETLHPGRPQPPAEEELCSGKPFDAFTDLKNGSLFAFRGQYCYELDEKAVRPGYPKLIRDVWGIEGPIDAAFTRINCQGKTYLFKGSQYWRFEDGVLDPDYPRNISDGFDGIPDNVDAALALPAHSYSGRERVYFFKGKQYWEYQFQHQPSQEECEGSSLSAVFEHFAMMQRDSWEDIFELLFWGRTSAGTRQPQFISRDWHGVPGQVDAAMAGRIYISGMAPRPSLAKKQRFRHRNRKGYRSQRGHSRGRNQNSRRPSRATWLSLFSSEESNLGANNYDDYRMDWLVPATCEPIQSVFFFSGDKYYRVNLRTRRVDTVDPPYPRSIAQYWLGCPAPGHL
B1: the “Number of bESC lines generated” value in test [4] is on record as 0.
